Source: ChEMBL document CHEMBL6092123, “Configuration of two cysteine residues in a ring within a stapled Bim peptide affects the secondary structure and apoptotic activity” (Bioorg Med Chem Lett, 2024)

Columns and labels:
HeLa = experiment: Induction of apoptosis in human HeLa cells assessed as green signal at 10 uM relative to control; format: functional
[1] = Drug uptake in human HeLa cells assessed as red signals at 10 uM incubated for 3 hrs by fluorescence microscopy; format: ADME, cell-based
[2] = Proteolytic stability assessed as proteinase K (unknown origin)-mediated drug degradation measured for 15 mins by Tricine-SDS-PAGE analysis; format: ADME; conditions: read-out: Drug degradation

| Compound | Activity (HeLa) | Drug uptake [1] | metabolised at 0.25 h [2] |
| --- | --- | --- | --- |
| CC[C@H](C)[C@H](NC(=O)[C@H](Cc1c[nH]c2ccccc12)NC(=O)[C@@H](NC(=O)[C@H](CCC(=O)O)NC(=O)[C@H](CCCNC(=N)N)NC(=O)[C@H](CCCNC(=N)N)NC(=O)[C@H](CCCNC(=N)N)NC(=O)[C@H](CCC(N)=O)NC(=O)[C@H](CCCNC(=N)N)NC(=O)[C@H](CCCNC(=N)N)NC(=O)[C@H](CCCCN)NC(=O)[C@H](CCCCN)NC(=O)[C@@H](N)CCCNC(=N)N)[C@@H](C)CC)C(=O)N[C@@H](C)C(=O)N[C@@H](CCC(N)=O)C(=O)N[C@@H](CCC(=O)O)C(=O)N[C@@H](CC(C)C)C(=O)N[C@@H](CCCNC(=N)N)C(=O)N[C@@H]1CSCc2ccccc2CSC[C@@H](C(=O)N[C@@H](Cc2ccccc2)C(=O)N[C@@H](CC(N)=O)C(=O)N[C@@H](C)C(=O)N[C@@H](Cc2ccc(O)cc2)C(=O)N[C@@H](Cc2ccc(O)cc2)C(=O)N[C@@H](C)C(=O)N[C@@H](CCCNC(=N)N)C(=O)O)NC(=O)[C@H](CC(=O)O)NC(=O)CNC(=O)[C@H]([C@@H](C)CC)NC1=O | 14% | – | – |
| H-RKKRRQRRREIWIAQELRRIGDEFNAYYAR-OH | 37% | Active | 95% |
| CC[C@H](C)[C@@H]1NC(=O)[C@@H](NC(=O)[C@H](CCCNC(=N)N)NC(=O)[C@H](CC(C)C)NC(=O)[C@H](CCC(=O)O)NC(=O)[C@H](CCC(N)=O)NC(=O)[C@H](C)NC(=O)[C@@H](NC(=O)[C@H](Cc2c[nH]c3ccccc23)NC(=O)[C@@H](NC(=O)[C@H](CCC(=O)O)NC(=O)[C@H](CCCNC(=N)N)NC(=O)[C@H](CCCNC(=N)N)NC(=O)[C@H](CCCNC(=N)N)NC(=O)[C@H](CCC(N)=O)NC(=O)[C@H](CCCNC(=N)N)NC(=O)[C@H](CCCNC(=N)N)NC(=O)[C@H](CCCCN)NC(=O)[C@H](CCCCN)NC(=O)[C@@H](N)CCCNC(=N)N)[C@@H](C)CC)[C@@H](C)CC)CSCc2ccccc2CSC[C@@H](C(=O)N[C@@H](Cc2ccccc2)C(=O)N[C@@H](CC(N)=O)C(=O)N[C@@H](C)C(=O)N[C@@H](Cc2ccc(O)cc2)C(=O)N[C@@H](Cc2ccc(O)cc2)C(=O)N[C@@H](C)C(=O)N[C@@H](CCCNC(=N)N)C(=O)O)NC(=O)[C@H](CC(=O)O)NC(=O)CNC1=O | 94% | Active | 68% |
| CC[C@H](C)[C@H](NC(=O)[C@H](Cc1c[nH]c2ccccc12)NC(=O)[C@@H](NC(=O)[C@H](CCC(=O)O)NC(=O)[C@H](CCCNC(=N)N)NC(=O)[C@H](CCCNC(=N)N)NC(=O)[C@H](CCCNC(=N)N)NC(=O)[C@H](CCC(N)=O)NC(=O)[C@H](CCCNC(=N)N)NC(=O)[C@H](CCCNC(=N)N)NC(=O)[C@H](CCCCN)NC(=O)[C@H](CCCCN)NC(=O)[C@@H](N)CCCNC(=N)N)[C@@H](C)CC)C(=O)N[C@@H](C)C(=O)N[C@@H](CCC(N)=O)C(=O)N[C@@H](CCC(=O)O)C(=O)N[C@@H](CC(C)C)C(=O)N[C@@H](CCCNC(=N)N)C(=O)N[C@@H]1CSCc2ccccc2CSC[C@H](C(=O)N[C@@H](Cc2ccccc2)C(=O)N[C@@H](CC(N)=O)C(=O)N[C@@H](C)C(=O)N[C@@H](Cc2ccc(O)cc2)C(=O)N[C@@H](Cc2ccc(O)cc2)C(=O)N[C@@H](C)C(=O)N[C@@H](CCCNC(=N)N)C(=O)O)NC(=O)[C@H](CC(=O)O)NC(=O)CNC(=O)[C@H]([C@@H](C)CC)NC1=O | 9.3% | – | – |
| CC[C@H](C)[C@@H]1NC(=O)[C@@H](NC(=O)[C@H](CCCNC(=N)N)NC(=O)[C@H](CC(C)C)NC(=O)[C@H](CCC(=O)O)NC(=O)[C@H](CCC(N)=O)NC(=O)[C@H](C)NC(=O)[C@@H](NC(=O)[C@H](Cc2c[nH]c3ccccc23)NC(=O)[C@@H](NC(=O)[C@@H](N)CCC(=O)O)[C@@H](C)CC)[C@@H](C)CC)CSCc2ccccc2CSC[C@@H](C(=O)N[C@@H](Cc2ccccc2)C(=O)N[C@@H](CC(N)=O)C(=O)N[C@@H](C)C(=O)N[C@@H](Cc2ccc(O)cc2)C(=O)N[C@@H](Cc2ccc(O)cc2)C(=O)N[C@@H](C)C(=O)N[C@@H](CCCNC(=N)N)C(=O)O)NC(=O)[C@H](CC(=O)O)NC(=O)CNC1=O | – | Not_active | – |
| CC[C@H](C)[C@@H]1NC(=O)[C@@H](NC(=O)[C@H](CCCNC(=N)N)NC(=O)[C@H](CC(C)C)NC(=O)[C@H](CCC(=O)O)NC(=O)[C@H](CCC(N)=O)NC(=O)[C@H](C)NC(=O)[C@@H](NC(=O)[C@H](Cc2c[nH]c3ccccc23)NC(=O)[C@@H](NC(=O)[C@@H](N)CCC(=O)O)[C@@H](C)CC)[C@@H](C)CC)CSCc2ccccc2CSC[C@H](C(=O)N[C@@H](Cc2ccccc2)C(=O)N[C@@H](CC(N)=O)C(=O)N[C@@H](C)C(=O)N[C@@H](Cc2ccc(O)cc2)C(=O)N[C@@H](Cc2ccc(O)cc2)C(=O)N[C@@H](C)C(=O)N[C@@H](CCCNC(=N)N)C(=O)O)NC(=O)[C@H](CC(=O)O)NC(=O)CNC1=O | 52% | – | – |
